The subject of assay [1] is rabbit aorta strip contracted with noradrenaline. Nature of the assay: rabbit aorta strip contracted with noradrenaline (in vitro vasorelaxing activity). To be noted: Oryctolagus cuniculus, concentration causing 50% inhibition of the contraction of the rabbit aorta strip, read-out: Vasodilative activity in vitro IC50. In kind it is cell-based. The protocol: The in vitro vasorelaxing activity was determined by the test of the rabbit aorta strip contracted with noradrenaline. The test was carried out according to the method described by K. Murakami et al., Eur. J. Pharmacol., 141, 195 (1987).
The IC50 values i.e., the concentrations of active substances, causing a 50% inhibition of the contraction of the rabbit strip, were determined.

Assay [2] has as its system Arg-vasopressin induced coronaric spasm in anesthetized Sprague Dawley rats. As to the kind of experiment: antianginal activity in vivo, Arg-vasopressin-induced coronaric spasm (increase of the T-wave). The settings on record: for ED50: Rattus norvegicus, iv, 4 increasing doses, Arg-vasopressin, read-out: ED50 (i.v.), dose yielding the 50% inhibition of the increase of the T-wave; for % Inhibition of the increase of the T-wave versus the controls: 3 mg/Kg per os, Arg-vasopressin i.v. The protocol:
The antianginal activity in vivo was determined on anesthetized Sprague Dawley rats of weight 350-400 g, operating according to the method of M. Leitold et al., Arzeim. Forsch., 36, 1454, (1986). The test was carried out by intravenously administering the animals with one I.U/Kg, equivalent to […] of Arg-vasopressin, thus inducing a coronaric spasm that is reproducible and may be electrocardiographically monitored by an increase of the T-wave. The compounds of the invention were administered by gastric gavage at a dose of 3 mg/Kg one […] before the administration of Arg-vasopressin. The antianginal effect was expressed as the percentage inhibition of the increase of the T-wave versus the controls. Another group of animals were intravenously administered with 4 increasing doses of the compound of the invention to measure their ED50, i.e. the dose yielding the 50% inhibition of the increase of the T-wave.

The conditions of assay [3]: B. W. Horrom et al., J. Org. Chem., 72, 721 (1950); cited from earlier work.

The values that follow come from patent US5189034A, “Benzoxazinone and benzothiazinone derivatives endowed with cardiovascular activity” (Italfarmaco S.P.A., priority 1990, dated 1993).

The IC50 is the midpoint of a concentration-inhibition curve. What is called ED50 is the dose at which the effect has come halfway, by size or by number of responders.

Each structure is given as a SMILES string.

Regarding `Cc1ccc2c(c1)C(=O)N(CCO[N+](=O)[O-])CO2` [Example 2, 2,3-Dihydro-6-methyl-3-(2'-nitrooxyethyl)-4H-1,3-benzoxazin-4-one], the IC50 in assay [1] turned out to be 5.4 nM. The ED50 in assay [2] turned out to be 0.0063 mg/kg.

With `O=C1c2ccccc2SCN1CCO[N+](=O)[O-]` [Example 10, 3(2'-nitrooxyethyl)-2,3-dihydro-4H-1,3-benzothiazin-4-one], the IC50 in assay [1] was 17 nM.

In the case of `O=C1NC(c2ccccc2)Oc2ccccc21` (stereo not shown) [2,3-dihydro-2-phenyl-4H-1,3-benzoxazin-4-one], the analgesic activity entry in assay [3] was “endowed with analgesic activity”.

For `O=C1c2ccccc2OCN1CCCCCO[N+](=O)[O-]` [Example 8, 2,3-Dihydro-3-(5'-nitrooxypentyl)-4H-1,3-benzoxazin-4-one], in assay [1], the IC50 was found to be 19 nM. For the same compound, the ED50 in assay [2] turned out to be 0.058 mg/kg.

As for `COc1ccc2c(c1)OCN(CCO[N+](=O)[O-])C2=O` [Example 9, 2,3-Dihydro-7-methoxy-3-(2'-nitrooxyethyl)-4H-1,3-benzoxazin-4-one], the IC50 in assay [1] is 14 nM.

For `O=C1c2ccc(Cl)cc2OCN1CCO[N+](=O)[O-]` [Example 3, 7-Chloro-2,3-dihydro-3-(2'-nitrooxyethyl)-4H-1,3-benzoxazin-4-one], the IC50 in assay [1] worked out at 6.3 nM. Besides, in assay [2], the “% Inhibition of the increase of the T-wave versus the controls” value stood at 31% and the ED50 was determined as 0.011 mg/kg.

As for `O=C1c2ccccc2OCN1CCO[N+](=O)[O-]` [Example 1, 2,3-Dihydro-3-(2'-nitrooxyethyl)-4H-1,3-benzoxazin-4-one], the IC50 in assay [1] came out at 94 nM. Besides, in assay [2], the “% Inhibition of the increase of the T-wave versus the controls” value amounted to 55% and the ED50 amounted to 0.0013 mg/kg.

Turning to `Cc1ccc2c(c1)OCN(CCO[N+](=O)[O-])C2=O` [Example 4, 2,3-Dihydro-7-methyl-3-(2'-nitrooxyethyl)-4H-1,3-benzoxazin-4-one], the IC50 in assay [1] was found to be 75 nM. In addition, in assay [2], the “% Inhibition of the increase of the T-wave versus the controls” value is 31% and the ED50 was found to be 0.012 mg/kg.
